Values quoted from earlier work as cited in patent US7122568B1, “Use of low-dose PDT to inhibit restenosis” (QLT, Inc., priority 1999, dated 2006).
Read-outs that look alike come from different tables or passages of the source.

Columns and labels:
porcine model = details: 0.3 mg/kg injected four hours prior to endothelial denudation; external irradiation 20 J/cm2 of 652 nm
[1] = tested on: rabbit arteries injured by endothelial denudation; details: systemic administration after injury, 120 or 240 J/cm2 irradiation 24 hours later
[2] = tested on: normal rabbit carotid arteries; details: systemic administration 7 days after denudation, external irradiation two days later; five weeks after PDT
[3] = tested on: normal rat carotid arteries; details: systemic administration, external irradiation; PDT on days 2 and 7 after denudation, read on day 14

Oc1cccc(-c2c3nc(c(-c4cccc(O)c4)c4ccc([nH]4)c(-c4cccc(O)c4)c4nc(c(-c5cccc(O)c5)c5ccc2[nH]5)CC4)C=C3)c1 [m-THPC, metatetrahydroxyphenyl-chlorin]
effect on intimal area (porcine model): significant increase of intimal area

Photofrin™
effect on IH [1]: prevention of IH
effect on induced IH response (ratio of IH area to normalized area enclosed by the IEL) [2]: effective in reducing the induced IH response

benzoporphyrin derivative monoacid ring A [BPD-MA]
effect on IH (rat carotid artery; 0.5 μg/ml local delivery, 50 and 100 J/cm2 of 690 nm (Stages I and II)): little effect on reducing IH
effect on IH (rat carotid artery; 0.5 μg/ml local delivery, 100 J/cm2 of 690 nm (Stage II)): induction of significant IH
effect on IH (rat carotid artery; 25 μg/ml local delivery, 50 J/cm2 of 690 nm (Stage III)): inhibit IH
photothrombosis (rat carotid artery; 25 μg/ml local delivery, 100 J/cm2 of 690 nm (Stage IV)): induce photothrombosis

chloraluminum-sulfonated phthalocyanine [CASPc]
effect on induced IH response [3]: effective in inhibiting the induced IH response
